Measurements taken from US12692396B2, “Fluorescent labeling agent and fluorescent dye” (artience Co., Ltd., priority 2020, dated 2026).

Experiments:
[1] = tested on: Human epithelium cancer cells A431; test: Evaluation of visibility of cell (fluorescent microscope); assay type: cell-based; parameters: key: P (Pass): Clear; F (Failure): Unclear
Protocol: <Evaluation of Visibility of Cell>
(§1) Human epithelium cancer cells A431 were seeded in a 96-well plate (1×10^4 cells/well). The A431 were cultured for 24 hours using an RPMI 1640 medium to which 10% fetal bovine serum (FBS) and 1% penicillin-streptomycin had been added in an incubator (37° C., 5% CO2-containing Air, humidified environment).
After cultivation, the medium was removed, and the fluorescent labeling agents prepared in Examples 127 to 189 and Comparative Examples 25 to 37 were added thereto and left to stand in the incubator for one hour. Next, these were washed in the RPMI 1640 medium. The dark field images and fluorescent images of the cells were observed using a fluorescent microscope (manufactured by Keyence Corporation, BZ-X800) equipped with an excitation filter for an appropriate wavelength and a fluorescent filter and evaluated based on the following standards.
• P (Pass): Clear • F (Failure): Unclear
The evaluation results of the visibility of the cells labeled with the fluorescent labeling agents 1, 15, 19, 24, 25, 68, and 75 are sequentially shown in FIGS. 2 to 8 (magnification: 10 times, optical uptake time: 1 second).
The evaluation results of the visibility of the cells labeled with the fluorescent labeling agents 42 and 53 are sequentially shown in FIGS. 9 to 10 (magnification: 40 times, optical uptake time: 1 second).
From what has been described above, it has been clarified that the fluorescent labeling agent according to the embodiment of the present invention has excellent characteristics as a fluorescent labeling agent.

[2] = tested on: Human epithelium cancer cells A431; test: Evaluation of cell toxicity of fluorescent labeling agent (cell counting kit-8, absorbance at 450 nm); assay type: cell-based
Protocol: <Evaluation of Cell Toxicity of Fluorescent Labeling Agent>
as §1, with “Next, the” for “The”, “environment). As the RPMI 1640 medium, an RPMI-164-Medium manufactured by Sigma-Aldrich Inc. was used.” for “environment).”
After cultivation, the medium was removed, the fluorescent labeling agents prepared in Examples 83 to 123 and Comparative Examples 25 to 37 and an RPMI 1640 medium containing 1% dimethyl sulfoxide (DMSO medium solution) were added thereto. These were left to stand in the incubator for one hour and then washed in the RPMI 1640 medium. 10 μL of a cell counting kit-8 (manufactured by Dojindo Laboratories.) was added to each well and left to stand in the incubator (37° C., 5% CO2-containing Air, humidified environment) for one hour. Next, the absorbance at 450 nm was measured using a plate reader (SPARK, manufactured by Tecan Trading AG).
The relative value of the absorbance of each fluorescent labeling agent when the absorbance of the well to which the DMSO medium solution had been added was regarded as one was calculated and evaluated based on the following standards. […] At the time of calculating the relative value of the absorbance of the fluorescent labeling agent, a value obtained by subtracting the absorbance before the addition of the cell counting kit-8 (manufactured by Dojindo Laboratories.) from the measured absorbance was used.
• P (Pass): 0.8 or more • F (Failure): Less than 0.8 <Evaluation of Fluorescence Intensity of Fluorescent Labeling Agent>

phospholipids = test: Evaluation of property of fluorescent dye being accumulated in phospholipids (labeling agent intensity / dye solution intensity); assay type: cell-based, Human; conditions: A431 cells, one hour; relative value, comparative compound 12 regarded as one; fluorescent wavelength range as in Table 22 (780-800 nm, 630-650 nm in last line)
Protocol: <Evaluation of Property of Fluorescent Dye being Accumulated in Phospholipids>
The property of each dye being accumulated in phospholipids was calculated from the fluorescence intensity integral value obtained from the fluorescent spectrum of the dye solution and the fluorescence intensity obtained from the fluorescence intensity of the fluorescent labeling agent using an expression (1). The relative value of the property of each fluorescent labeling agent being accumulated in phospholipids when the property of the comparative compound 12 being accumulated in phospholipids was regarded as one was calculated and evaluated based on the following standards. In a case where the relative value is evaluated as 3 or more, it can be said that each fluorescent dye has a favorable property of being accumulated in phospholipids.
• 4: The property of being accumulated in phospholipids is 4 or more. • 3: The property of being accumulated in phospholipids is 2 or more and less than 4. • 2: The property of being accumulated in phospholipids is 1 or more and less than 2. • 1: The property of being accumulated in phospholipids is less than 1. Property of being accumulated in phospholipids=fluorescence intensity of fluorescent labeling agent/fluorescence intensity of dye solution (1)

[3] = A431 cells labeled for one hour, Clear/Unclear
[4] = cell counting kit-8, absorbance at 450 nm, pass/fail grade
[5] = A431 cells, labeling agent left one hour
[6] = labeling agent left one hour, absorbance relative to DMSO medium solution regarded as one

Row | SMILES | Cell visibility [1, 3] | Cell toxicity [2, 4] | Cell toxicity [2, 6] | further results
1 | CC1=CC(C)=[N+]2C1=Cc1ccc(CCC(=O)NCCCO)n1[B-]2(F)F [Fluorescent dye 63] | P | P (P (Pass): 0.8 or more) | – | –
2 | CCOc1cccc2c1C1=NC2=Nc2c3c(OCC)cccc3c3[n]2[Al]([O]P(=O)(CCC(=O)O)Oc2ccccc2)[n]2c(c4cccc(OCC)c4c2=NC2=NC(=N3)c3c(OCC)cccc32)=N1 (centres unmarked) [Fluorescent dye 18] | – | – | P (P (Pass): 0.8 or more) | Cell visibility [1, 5]: P; Property of being accumulated in phospholipids (phospholipids): 4 (4: The property of being accumulated in phospholipids is 4 or more.)
3 | C[Si](C)(CCC[N+](c1ccccc1)(c1ccccc1)c1ccccc1)[O][Al]1[n]2c3c4cc(C5CCCCC5)c(C5CCCCC5)cc4c2N=C2N=C(N=c4c5cc(C6CCCCC6)c(C6CCCCC6)cc5c([n]41)=NC1=NC(=N3)c3cc(C4CCCCC4)c(C4CCCCC4)cc31)c1cc(C3CCCCC3)c(C3CCCCC3)cc12.[I-] [Fluorescent dye 21] | – | – | P (P (Pass): 0.8 or more) | Cell visibility [1, 5]: P; Property of being accumulated in phospholipids (phospholipids): 4 (4: The property of being accumulated in phospholipids is 4 or more.)
4 | CC[N+](CC)(CC)CCC[Si](C)(C)[O][Al]1[n]2c3c4cc(-c5ccccc5)ccc4c2N=C2N=C(N=c4c5cc(-c6ccccc6)ccc5c([n]41)=NC1=NC(=N3)c3ccc(-c4ccccc4)cc31)c1ccc(-c3ccccc3)cc12.[I-] [Fluorescent dye 20] | – | – | P (P (Pass): 0.8 or more) | Cell visibility [1, 5]: P; Property of being accumulated in phospholipids (phospholipids): 4 (4: The property of being accumulated in phospholipids is 4 or more.)
5 | CCOc1cccc2c1C1=NC2=Nc2c3c(OCC)cccc3c3n2[Si](O)(O[Si](C)(C)CCCN)n2c(c4cccc(OCC)c4c2=NC2=NC(=N3)c3c(OCC)cccc32)=N1 (centres unmarked) [Fluorescent dye 5] | – | – | P (P (Pass): 0.8 or more) | –
6 | NCCc1ccc(S(=O)(=O)[O][Al]2[n]3c4c5cc(C(F)(F)F)ccc5c3N=C3N=C(N=c5c6cc(C(F)(F)F)ccc6c([n]52)=NC2=NC(=N4)c4ccc(C(F)(F)F)cc42)c2ccc(C(F)(F)F)cc23)cc1 [Fluorescent dye 7] | – | – | P (P (Pass): 0.8 or more) | –
7 | O=C(O)CCCN1C(=O)C2=C(c3ccccc3)NC(=O)C2=C1c1ccccc1 [Fluorescent dye 38] | P | P (P (Pass): 0.8 or more) | – | –
8 | C[Si](C)(CCCN)[O][Al]1[n]2c3c4cc(C5CCCCC5)c(C5CCCCC5)cc4c2N=C2N=C(N=c4c5cc(C6CCCCC6)c(C6CCCCC6)cc5c([n]41)=NC1=NC(=N3)c3cc(C4CCCCC4)c(C4CCCCC4)cc31)c1cc(C3CCCCC3)c(C3CCCCC3)cc12 [Fluorescent dye 3] | – | – | P (P (Pass): 0.8 or more) | –
9 | CC(C)(C)c1ccc2c(c1)C1=NC2=Nc2c3cc(C(C)(C)C)ccc3c3[n]2[Al]([O]S(=O)(=O)c2ccc(CCN)cc2)[n]2c(c4ccc(C(C)(C)C)cc4c2=NC2=NC(=N3)c3cc(C(C)(C)C)ccc32)=N1 [Fluorescent dye 9] | – | – | P (P (Pass): 0.8 or more) | –
10 | CCOc1cccc2c1C1=Nc3c4cccc(OCC)c4c4[n]3[Zn][n]3c(c5cccc(OCC)c5c3=NC2=N1)=NC1=NC(=N4)c2ccc(OS(=O)(=O)c3ccc(CCCN)cc3)cc21 [Fluorescent dye 37] | P | P (P (Pass): 0.8 or more) | – | –
11 | CCOc1cccc2c1C1=NC2=Nc2c3c(OCC)cccc3c3[n]2[Al]([O]S(=O)(=O)c2ccc(CCN)cc2)[n]2c(c4cccc(OCC)c4c2=NC2=NC(=N3)c3c(OCC)cccc32)=N1 [Fluorescent dye 6] | – | – | P (P (Pass): 0.8 or more) | –
12 | O=C1NC(c2ccccc2)=C2C(=O)N(CCCP(=O)(O)O)C(c3ccccc3)=C12 [Fluorescent dye 60] | P | P (P (Pass): 0.8 or more) | – | –
13 | CCOc1cccc2c1C1=NC2=Nc2c3c(OCC)cccc3c3[n]2[Al]([O]C(=O)CCCN)[n]2c(c4cccc(OCC)c4c2=NC2=NC(=N3)c3c(OCC)cccc32)=N1 [Fluorescent dye 10] | – | – | P (P (Pass): 0.8 or more) | –
14 | CC(C)C(Oc1cccc2c1C1=NC2=Nc2c3c(OC(C(C)C)C(C)C)cccc3c3[n]2[Al]([O]S(=O)(=O)CCCOCCC(=O)O)[n]2c(c4cccc(OC(C(C)C)C(C)C)c4c2=NC2=NC(=N3)c3c(OC(C(C)C)C(C)C)cccc32)=N1)C(C)C [Fluorescent dye 12] | – | – | P (P (Pass): 0.8 or more) | –
15 | CC1=CC(C)=[N+]2C1Cc1ccc(CCC(=O)NCCCN(C)C)n1[B-]2(F)F (centres unmarked) [Fluorescent dye 41] | P | P (P (Pass): 0.8 or more) | – | –
16 | CN1/C(=C/C=C/C=C/C2=[N+](CCCCCC(=O)NCCCO)c3ccccc3C2(C)C)C(C)(C)c2ccccc21 [Fluorescent dye 62] | P | P (P (Pass): 0.8 or more) | – | –
17 | C[Si](C)(CCCN)[O][Al]1[n]2c3c4cccc(Sc5ccccc5)c4c2N=C2N=C(N=c4c5cccc(Sc6ccccc6)c5c([n]41)=NC1=NC(=N3)c3c(Sc4ccccc4)cccc31)c1c(Sc3ccccc3)cccc12 [Fluorescent dye 4] | – | – | P (P (Pass): 0.8 or more) | –
18 | CCCCCCCCCCCCCCCCCCc1ccc2c(c1)C1=NC2=Nc2c3cc(CCCCCCCCCCCCCCCCCC)ccc3c3[n]2[Al]([O]S(=O)(=O)c2ccc(CCN)cc2)[n]2c(c4ccc(CCCCCCCCCCCCCCCCCC)cc4c2=NC2=NC(=N3)c3cc(CCCCCCCCCCCCCCCCCC)ccc32)=N1 [Fluorescent dye 8] | – | – | P (P (Pass): 0.8 or more) | –
19 | CCOc1cccc2c1C1=Nc3c4cccc(OCC)c4c4[n]3[Al-2]35([O]S(=O)(=O)c6ccc(O)cc6)[n]6c(c7cccc(OCC)c7c6=NC2=[N+]13)=NC1=[N+]5C(=N4)c2cccc(OCC)c21 [Fluorescent dye 55] | P | P (P (Pass): 0.8 or more) | – | –
20 | CN(C)CCCNC(=O)c1ccc(C(=O)O)c(-c2c3ccc(=O)cc-3oc3cc(O)ccc23)c1 [Fluorescent dye 39] | P | P (P (Pass): 0.8 or more) | – | –
21 | CCN(CC)c1ccc2c(-c3ccccc3C(=O)NCCCN(C)C)c3ccc(=[N+](CC)CC)cc-3oc2c1.[Cl-] [Fluorescent dye 40] | P | P (P (Pass): 0.8 or more) | – | –
22 | CCOc1cccc2c1C1=NC2=Nc2c3c(OCC)cccc3c3[n]2[Al]([O]C(=O)c2ccc(C(=O)O)cc2)[n]2c(c4cccc(OCC)c4c2=NC2=NC(=N3)c3c(OCC)cccc32)=N1 [Fluorescent dye 11] | – | – | P (P (Pass): 0.8 or more) | –
23 | CCOc1cccc2c1C1=Nc3c4cccc(OCC)c4c4[n]3[Mg][n]3c(c5cccc(OCC)c5c3=NC2=N1)=NC1=NC(=N4)c2ccc(OS(=O)(=O)c3ccc(CCCN)cc3)cc21 [Fluorescent dye 36] | P | P (P (Pass): 0.8 or more) | – | –
24 | CCOc1cccc2c1C1=Nc3c4cccc(OCC)c4c4[n]3[Al-2]35([O][PH](=O)CCCO)[n]6c(c7cccc(OCC)c7c6=NC2=[N+]13)=NC1=[N+]5C(=N4)c2cccc(OCC)c21 (centres unmarked) [Fluorescent dye 54] | P | P (P (Pass): 0.8 or more) | – | –
